These results are taken from PMC5601071 (Frontiers in Pharmacology, 2017).

In data set [1] the target is T1, TREK-1 channel (hTREK-1/HEK cells) (Homo sapiens, UniProt O95069).
T1 construct: expressed in transfected cells
T1 sequence (O95069 1-426): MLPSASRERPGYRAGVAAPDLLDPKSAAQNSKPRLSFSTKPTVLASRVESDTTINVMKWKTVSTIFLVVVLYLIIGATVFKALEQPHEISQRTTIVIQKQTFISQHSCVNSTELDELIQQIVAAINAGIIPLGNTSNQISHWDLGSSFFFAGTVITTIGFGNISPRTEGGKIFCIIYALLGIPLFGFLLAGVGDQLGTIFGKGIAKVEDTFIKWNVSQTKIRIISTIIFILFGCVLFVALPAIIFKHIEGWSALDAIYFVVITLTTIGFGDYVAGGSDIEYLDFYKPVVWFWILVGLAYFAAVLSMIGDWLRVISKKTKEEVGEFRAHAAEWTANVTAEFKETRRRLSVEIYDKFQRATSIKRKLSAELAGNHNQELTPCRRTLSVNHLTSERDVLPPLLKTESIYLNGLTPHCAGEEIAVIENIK
The data set can be described thus: TREK-1 current inhibition, whole-cell patch-clamp on hTREK-1/HEK cell line. The following applies: hTREK-1/HEK cells. It is filed as cell-based. As to the method:
The human TREK-1/HEK cell line (Moha ou Maati et al., [2011]) and the native HEK293 cell line were maintained in Dulbecco's Modified Eagle's Medium (DMEM) supplemented with 10% (v/v) heat-inactivated fetal bovine serum, 1% (v/v) penicillin-streptomycin, 1% Glutamax. For the hTREK-1/HEK cells, 0.5 mg/ml G418 were added to the medium.
Cells were incubated in a humidified atmosphere containing 5% CO2. For electrophysiological measurements, cells were plated at a density of 20,000 cells per 35 mm dish.
Cells from the hTREK-1/HEK cell line were seeded at a density of 20,000 cells/35 mm dish. Electrophysiological recordings were performed 24–48 h after plating using the whole-cell configuration of patch-clamp technique. TREK-1 currents (ITREK−1) were recorded using RK400 patch-clamp amplifier (Axon Instrument, USA). They were low-pass filtered at 3 kHz and digitized at 10 kHz using a 12-bit analog-to-digital converter digidata (1322 series, Axon Instrument, USA). ITREK−1amplitudes were expressed as current densities [current amplitude (pA)/membrane capacitance (pF)]. The results were expressed as mean ± SEM (standard error of the mean).
Cells were continuously perfused using an external bath solution containing in mM: 150 NaCl, 5 KCl, 3 MgCl2, 1 CaCl2, and 10 HEPES. The bath solution was initially adjusted to pH 7.4 with NaOH. The intra-pipette solution contained in mM: 155 KCl, 3 MgCl2, 5 EGTA, and 10 HEPES adjusted to pH 7.2 with KOH. In order to measure ITREK−1, a cocktail of potassium channel blockers was added to the bath solution. This cocktail contained: 3 mM 4-AP (4-aminopyridine), 10 mM TEA (tetraethylammonium), 10 μM Glibenclamide, 100 nM Apamin, and 50 nM Charybdotoxin. Data acquisition was carried out using a computer (Dell Pentium) with pClamp software (Axon Instrument, USA). Whole-cell currents were generated by running a pulse or ramp protocol every 5 s from −100 to +60 mV with a holding potential maintained at −80 mV. To evaluate the inhibitory effect on TREK-1 channels of shortened spadin analogs compared with spadin, cells were first activated by 10 μM arachidonic acid (AA). Dose-response curves were realized to compare spadin-analog effects with spadin using Origin 8.6 (Northampton, MA, USA).
Patch-clamp recording data were analyzed using Clampfit (Molecular Devices, USA). I = f(V) curves were obtained from −100 to +60 mV ramp. Data were presented as mean ± SEM.
(The patch-clamp technique gives a direct electrical read-out from membranes.)

Data set [2] in a line: In vitro degradation / half-life time in serum. Format: in vitro ADME, mouse. The settings on record: mouse serum, 30 min, 37°C (method b20: 10 nmoles in 200 μl serum, room temperature); HPLC. As for the experimental part: […] Incubations were stopped by direct acidification (5 μl of 2.5 M HCl), loaded in C-18 sepack cartridges, lyophilized, resuspended in 20% acetonitrile before loading onto HPLC for analysis of PE degradation/stability. Elutions of HPLC products were carried out by means of a 50-min linear gradient of acetonitrile from 20 to 70% at a flow rate of 1 ml/min. The amount of the intact PE for each incubation time was expressed as the percent of the initial amount of spadin.

The target in data set [3] is T1, TREK-1 channel (hTREK-1/HEK cells). The following applies: ref Mazella et al., 2010, Moha ou Maati et al., 2011, cited from earlier work. An excerpt:
Depression is a devastating mental disorder that affects 20% of the population worldwide. Despite their proven efficacy, antidepressants present a delayed onset of action and serious adverse effects. Seven years ago, we described spadin (PE 12-28) as a promising endogenous peptide with antidepressant activity. Spadin specifically blocks the TREK-1 channel. […] In order to improve in vivo spadin stability and bioavailability, we screened spadin analogs and derivatives. From the study of spadin blood deg ... || Depression is one of the most common mood disorders that represents a heavy economic burden in industrialized countries (Smith, [2014]). Severe depression affects 2–5% of US citizens and up to 20% of the population suffer from mild depression (Nestler et al., [2002]; Maletic et al., [2007]; Krishnan and Nestler, [2008]; Kessler et al., [2012]). Depression is a complex syndrome with a variety of causes mostly genetic and environmental (Nestler et al., [2002]).

The nature of data set [4]: mouse serum. The settings on record: 37°C (Figure 1 legend), room temperature, up to 60 min.

Where two headings read alike, the source gives them in different places. Residues, ends and D or L forms follow the SMILES beside them.

The inhibition is the relative decrease from the control value, in per cent. Broadly, the IC50 is the concentration at which inhibition is half-maximal. In the case of `CC[C@H](C)[C@H](NC(=O)[C@@H]1CCCN1C(=O)CNC(=O)[C@H](CO)NC(=O)[C@H](Cc1c[nH]c2ccccc12)NC(=O)[C@H](CCCNC(=N)N)NC(=O)[C@@H]1CCCN1C(=O)[C@H](CC(C)C)NC(=O)[C@@H]1CCCN1C(=O)[C@H](C)N)C(=O)NCC(=O)N[C@H](C(=O)N[C@@H](CO)C(=O)N[C@@H](Cc1c[nH]c2ccccc12)C(=O)NCC(=O)N[C@@H](CC(C)C)C(=O)N[C@@H](CCCNC(=N)N)C(=O)O)C(C)C` [PE 12-28 (Spadin), reference compound] (H-APLPRWSGPIGVSWGLR-OH), in data set [1] (HEK293, peptide 100 nM, TREK-1 first activated with 10 μM arachidonic acid (AA), current density at 0 mV, mean ± SEM, n = cells, read-out: % of TREK-1 inhibition), the inhibition at 0.1 µM was found to be 44.4 ± 8.82%. The half-inhibitory concentration (IC50) in data set [1] (dose-response curves at 0 mV, activated by 10 μM AA) was 40 nM; in data set [3] (Moha Ou Maati et al., 2012, read-out: IC50 for TREK-1 block (spadin)), 40 to 60 nM. Besides, the “spadin remaining after incubation with serum” value in data set [2] is “disappearance of almost all spadin”.
With `CNCCC(Oc1ccc(C(F)(F)F)cc1)c1ccccc1` (stereo not drawn) [fluoxetine], the IC50 in data set [3] (read-out: IC50 for TREK-1 block (fluoxetine)) was about 6000 nM.
Take APLPRWSGPIGVSWGLR: in data set [4], the fragment found result is recorded as “PE 12-27”.
